Reference: patent US20140309192A1, “MODULATORS OF THE G PROTEIN-COUPLED MAS RECEPTOR AND THE TREATMENT OF DISORDERS RELATED THERETO” (ARENA PHARMACEUTICALS, INC., priority 2011, published 2014)
Where two headings read alike, the source gives them in different places.

Assays:
[1] = test system: control HEK293 cells; test: HTRF IP1 assay in control HEK293 cells; format: cell-based; details: IP assay
Description: Human and rat Mas receptors were either transiently or stably expressed in HEK293 cells. For transient transfections, human or rat Mas in pHM6 vector were transfected into HEK293 cells using Lipofectamine® (Invitrogen #18324-012). HEK293 cells transfected with empty pHM6 vector were used as a control. For generation of stable cell lines, cDNA expression plasmids encoding human or rat Mas genes and the neo^r gene were transfected into HEK293 cells (ATCC# CRL-1573) using Lipofectamine® (Invitrogen) according to the manufacturer's instructions. Stable receptor expressing pools were then generated over 3 weeks by standard techniques in the presence of 500 μg/mL Geneticin® (Gibco). Individual receptor stable pools were dilution cloned using standard techniques and clones were comparatively evaluated in inositol phosphate accumulation assays. Preferred clones were banked and cultured as needed. HEK293 cells were used as controls. The 384 well IP-One HTRF® Assay (Cisbio #62P1APEJ) was performed as described by the manufacturer's protocol. Cells were plated in at 100,000 cells per well in 15 μL DMEM (Gibco #11960) and incubated in a CO2 incubator at 37° C. for 2 h. […] IP1 levels in each well were calculated according to the standard curves on each plate. […]

[2] = target: T1, human Mas receptor (Homo sapiens, UniProt P04201); test: HTRF IP1 assay, HEK293 cells expressing human Mas receptor; format: cell-based
T1 construct: expressed in transfected cells; host or cells: HEK293 (ATCC CRL-1573)
T1 sequence (P04201 1-325): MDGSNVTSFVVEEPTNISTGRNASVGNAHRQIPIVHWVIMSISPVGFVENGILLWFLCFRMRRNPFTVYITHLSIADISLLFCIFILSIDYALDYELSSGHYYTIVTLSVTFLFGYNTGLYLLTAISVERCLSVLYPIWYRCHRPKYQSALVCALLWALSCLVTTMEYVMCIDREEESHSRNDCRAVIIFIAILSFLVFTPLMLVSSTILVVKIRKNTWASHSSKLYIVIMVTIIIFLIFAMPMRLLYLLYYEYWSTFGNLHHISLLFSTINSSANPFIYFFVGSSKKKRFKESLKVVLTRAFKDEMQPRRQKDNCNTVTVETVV

[3] = target: T2, rat Mas receptor (Rattus norvegicus, UniProt P12526); test: HTRF IP1 assay, HEK293 cells expressing rat Mas receptor; format: cell-based
T2 construct: expressed in transfected cells; host or cells: HEK293 (ATCC CRL-1573)
T2 sequence (P12526 1-324): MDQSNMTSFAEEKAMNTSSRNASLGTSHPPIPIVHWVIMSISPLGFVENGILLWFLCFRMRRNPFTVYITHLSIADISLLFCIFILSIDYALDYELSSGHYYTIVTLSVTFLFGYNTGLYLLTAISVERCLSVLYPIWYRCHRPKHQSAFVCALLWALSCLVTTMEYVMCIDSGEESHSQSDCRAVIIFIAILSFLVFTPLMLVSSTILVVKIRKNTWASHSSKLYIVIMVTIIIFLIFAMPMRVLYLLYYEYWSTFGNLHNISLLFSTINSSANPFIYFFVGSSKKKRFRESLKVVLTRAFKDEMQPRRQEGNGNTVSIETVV

[4] = test system: isolated perfused mouse hearts; test: Ex vivo coronary flow, Langendorff perfused isolated mouse hearts; details: 1 μM
Description: Coronary flow was measured in male Mas^−/− and Mas^+/+ mice, and in male Sprague-Dawley rats using Langendorff perfused isolated hearts. Freshly isolated hearts were placed on a Langendorff apparatus (Harvard Apparatus) and perfused at a constant pressure of 80 mmHg with a modified Krebs-Henseleit buffer solution (Sigma K3753) and aerated with 95% oxygen and 5% carbon dioxide, pH 7.35-7.4. The temperature was maintained at 37° C. by surrounding the heart with a water-heated glassware chamber. Coronary flow was measured using a flow measurement system (Harvard Apparatus) which included the transit time flow meter and a flow probe built into an adaptor block located at the perfusate inflow port. Data were recorded continuously using an ISOHEART data acquisition system (Harvard Apparatus). After a 20-min equilibration period, Mas compounds were added to the perfusion buffer reservoir at the desired concentration (agonist AR234960 at 1 μM, or inverse agonist AR244555 at 5 μM) and coronary flow was recorded for 10 min

[5] = test system: Male Sprague Dawley rats; test: Rat model of transient cerebral ischemia/stroke; format: in vivo; details: 3 mg/kg bolus i.v. 1 min prior to MCA occlusion or at the onset of reperfusion
Description: Rats were anesthetized with pentobarbital (70 mg/kg). Normal body temperature was maintained by placing the animals on heating pads. A midline neck incision was made and soft tissues were pulled apart, and the external carotid artery (ECA), and internal carotid artery (ICA) were exposed. […] An incision was made around the left hind leg area and exposing the femoral vein. A 30-mm length of 3-0 monofilament nylon suture coated with 0.1% poly-lysine was inserted into the right ICA lumen through a small incision at about 4-mm proximal to the carotid bifurcation. The filament was advanced 18-22 mm from the start of the carotid bifurcation to block the origin of the right middle cerebral artery (MCA) for the ischemia time designed. Reperfusion was obtained by pulling out the occluding filament at the end of the MCA. After occlusion the tissues around the neck were closed with 4-0 silk suture (Ethicon, 1677G). The skin around the neck was closed with metal clips and the cutting area was treated with iodine. At the end of the reperfusion period (e.g. 24 h) the rats were anesthetized with Nembutal (70 mg/kg) and the brains were removed. […] Whole area (WA) and infarct area (IA) were measured for each coronal section. Brain damage was assessed by IA/(IA+WA). […]

Compound: COc1cc([N+](=O)[O-])ccc1S(=O)(=O)N1CC(CN2CCN(c3ccccn3)CC2)C(c2cccc(F)c2)C1 (centres unmarked) [AR234960]
- effects in control HEK293 cells [1]: There were detected effects
- IC50 ([2]; IP assay, HEK293 cells stably expressing human Mas, 4 h, means ± SEM, read-out: Human IC50): 351 ± 55 nM
- ligand activity in IP assay, human Mas ([2]; Table C, line under Human IC50): (agonist)
- IC50 ([3]; IP assay, HEK293 cells stably expressing rat Mas, 4 h, means ± SEM, read-out: Rat IC50): 172 ± 9 nM
- ligand activity in IP assay, rat Mas ([3]; Table C, line under Rat IC50): (agonist)
- coronary flow, Mas knockout (Mas−/−) mouse hearts [4]: absent
- coronary flow, Mas+/+ mouse hearts [4]: 64 % of baseline
- coronary flow, wild type (Mas+/+) mouse hearts [4]: decreased coronary flow significantly

Compound: NC(=O)[C@H](CO)NCc1ccc(C(=O)Nc2ccc(Cl)cc2N2CCN(CCC(F)(F)F)CC2)c(F)c1F [Compound 170, (S)-4-((1-Amino-3-hydroxy-1-oxopropan-2-ylamino)methyl)-N-(4-chloro-2-(4-(3,3,3-trifluoropropyl)piperazin-1-yl)phenyl)-2,3-difluorobenzamide]
- IC50 ([2]; HTRF IP1 assay, human Mas receptor (Table B.2), read-out: IC50): 15.6 nM
- IC50 ([3]; HTRF IP1 assay, rat Mas receptor (Table B.1), read-out: IC50): 21.4 nM
- brain damage associated with transient ischemic injury [5]: reduced brain damage
